Laboratory results taken from paper PMC4365380, “Synthesis and Biological Activity of Arylspiroborate Salts Derived from Caffeic Acid Phenethyl Ester” (International Journal of Medicinal Chemistry, 2015).

Target: T1, 5-lipoxygenase (5-LO) (Homo sapiens, UniProt P09917)
T1 construct: gene ALOX5
T1 sequence (P09917 1-674): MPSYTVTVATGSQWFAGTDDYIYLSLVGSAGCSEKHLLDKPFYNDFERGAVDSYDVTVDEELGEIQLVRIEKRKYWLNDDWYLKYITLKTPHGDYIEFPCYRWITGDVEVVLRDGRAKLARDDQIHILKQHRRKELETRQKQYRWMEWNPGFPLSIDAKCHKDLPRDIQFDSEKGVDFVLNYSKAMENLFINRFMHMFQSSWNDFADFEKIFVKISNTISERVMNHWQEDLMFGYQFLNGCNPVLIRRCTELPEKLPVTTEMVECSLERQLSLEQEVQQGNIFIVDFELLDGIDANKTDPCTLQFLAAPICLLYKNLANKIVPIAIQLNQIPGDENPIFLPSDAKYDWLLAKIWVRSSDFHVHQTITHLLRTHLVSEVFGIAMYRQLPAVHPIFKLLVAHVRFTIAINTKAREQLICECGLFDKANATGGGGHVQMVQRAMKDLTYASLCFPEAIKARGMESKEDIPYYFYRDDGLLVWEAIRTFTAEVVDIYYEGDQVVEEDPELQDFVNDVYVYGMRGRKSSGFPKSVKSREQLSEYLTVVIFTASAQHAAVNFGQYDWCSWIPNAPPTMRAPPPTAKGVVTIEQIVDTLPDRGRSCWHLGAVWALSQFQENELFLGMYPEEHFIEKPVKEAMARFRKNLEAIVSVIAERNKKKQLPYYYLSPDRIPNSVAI
T1 sequence (P20292 1-161 partner): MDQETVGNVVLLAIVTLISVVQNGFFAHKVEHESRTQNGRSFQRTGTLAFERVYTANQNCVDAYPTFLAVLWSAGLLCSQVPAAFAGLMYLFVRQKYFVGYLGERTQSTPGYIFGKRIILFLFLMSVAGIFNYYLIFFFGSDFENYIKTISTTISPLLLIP
Test: 5-LO product biosynthesis (RP-HPLC) in thapsigargin-stimulated human PMNL; also HEK293 cells expressing 5-LO and FLAP
Assay type: cell-based
Conditions: read-out: IC50 (μM) [SEM]^*

Structure (SMILES): O=C(/C=C/c1ccc(O)c(O)c1)OCCc1ccccc1 [compound 3, CAPE]
- IC50: 1.11 µM
